Assay results published in patent US11840686B2, “Modulation of prekallikrein (PKK) expression” (Ionis Pharmaceuticals, Inc., priority 2013, dated 2023).
Strand notation (5' to 3'): a small letter for the sugar, then the base; units joined by * are phosphorothioate-linked, units joined directly phosphodiester-linked; [ ] holds rarer units or linkages, { } end groups; capitals alone tell only the bases. e = 2'-O-(2-methoxyethyl) (MOE); [5mC] = 5-methylcytosine; d = 2'-deoxy (DNA)

Test system: human PKK mRNA
Assay: Antisense inhibition of human PKK mRNA in HepaRG cells, 5,000 nM (Example 2)
Type: cell-based
Conditions: HepaRG cells, 5,000 nM antisense oligonucleotide; 5-10-5 gapmers; Table 16
Procedure, shortened: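 HepaRG cells, 20,000 per well, were electroporated with 5,000 nM MOE gapmer (phosphorothioate, 5-methylcytosine) and incubated about 24 hours. PKK mRNA was quantified by qRT-PCR with primer probe set RTS3454, normalized to RIBOGREEN total RNA, and expressed as percent inhibition versus untreated controls.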

Row | Substance | % inhibition [%]
1 | 547714 (antisense e[5mC]*eT*eG*eT*e[5mC]*dT*dA*dA*d[5mC]*dT*dG*dG*d[5mC]*d[5mC]*dT*eG*eG*e[5mC]*eT*eG) [compound 547714] | 19

Same assay, conditions: HepaRG cells, 5,000 nM antisense oligonucleotide; 5-10-5 gapmers; Table 17

Row | Substance | % inhibition [%]
2 | 547013 (eT*eG*eA*eG*eA*dT*dT*dG*dG*dT*dG*dG*dT*dG*dG*eG*eT*eG*eG*e[5mC]; antisense) [compound 547013] | 0
3 | 547760 (antisense eA*eT*e[5mC]*eA*eT*dG*d[5mC]*dT*dT*dA*d[5mC]*dT*dG*d[5mC]*dA*eA*eG*eT*eG*eA) [compound 547760] | 19
4 | 547020 (eG*eG*eA*eT*e[5mC]*dG*dG*dT*dG*dG*dT*dG*dG*dG*dA*eT*eT*eG*eG*eT; antisense) [compound 547020] | 47
5 | 547730 (eG*eA*eT*eT*eG*dG*dT*dG*dG*dT*dG*dG*dG*dA*dT*eT*eG*eG*eT*eG; antisense) [compound 547730] | 60
6 | 547756 (antisense eG*eG*eG*eT*e[5mC]*dT*dT*dG*d[5mC]*dT*d[5mC]*d[5mC]*dA*d[5mC]*d[5mC]*e[5mC]*eA*e[5mC]*eA*eT) [compound 547756] | 49

Same assay, conditions: HepaRG cells, electroporation with 5,000 nM antisense oligonucleotide, approximately 24 hours, PKK mRNA by RT-PCR (RTS3454), relative to untreated control cells; Table 5 experiment

Row | Substance | % inhibition [%]
7 | 546171 (antisense e[5mC]*eT*eA*eT*e[5mC]*dT*dT*dT*d[5mC]*dA*dA*dG*dA*dA*dG*e[5mC]*eA*eA*e[5mC]*e[5mC]) [compound 546171] | 81
8 | 547279 (antisense eA*eA*eA*eA*e[5mC]*dA*d[5mC]*dA*dA*dT*dT*dG*d[5mC]*dT*dT*e[5mC]*eT*eT*eG*eG) [compound 547279] | 69

Same assay, conditions: HepaRG cells, electroporation with 5,000 nM antisense oligonucleotide, approximately 24 hours, PKK mRNA by RT-PCR (RTS3454), relative to untreated control cells; Table 6 experiment

Row | Substance | % inhibition [%]
9 | 547344 (antisense eG*eA*e[5mC]*eA*e[5mC]*dA*dT*dT*dA*dA*dA*dA*dT*dT*dG*eA*e[5mC]*eT*e[5mC]*e[5mC]) [compound 547344] | 80
10 | 547356 (eT*eA*eA*eT*eA*dG*dG*d[5mC]*dA*dA*dT*dT*dG*dT*dT*e[5mC]*e[5mC]*eG*eG*eT; antisense) [compound 547356] | 83
11 | 546177 (antisense eT*eG*eT*e[5mC]*e[5mC]*dA*dG*dA*dA*dA*d[5mC]*dT*dG*d[5mC]*dA*e[5mC]*e[5mC]*eT*eG*eT) [compound 546177] | 75
12 | 546196 (antisense e[5mC]*eA*e[5mC]*eT*eG*d[5mC]*dT*dA*dA*d[5mC]*d[5mC]*dT*dT*dA*dG*eA*e[5mC]*eA*e[5mC]*eA) [compound 546196] | 83

Same assay, conditions: HepaRG cells, electroporation, 5,000 nM antisense oligonucleotide, approx. 24 hours, primer probe set RTS3454, relative to untreated control cells; Table 11

Row | Substance | % inhibition [%]
13 | 547512 (antisense eG*e[5mC]*eA*eG*eA*dT*dG*dA*dG*dG*dA*d[5mC]*d[5mC]*d[5mC]*d[5mC]*e[5mC]*e[5mC]*eA*eG*eG) [compound 547512] | 74
14 | 546363 (antisense e[5mC]*eT*eT*e[5mC]*eT*d[5mC]*dA*dT*dG*d[5mC]*dT*dG*dG*dT*dG*eA*e[5mC]*eT*eG*e[5mC]) [compound 546363] | 81

Same assay, conditions: HepaRG cells, electroporation, 5,000 nM antisense oligonucleotide, approx. 24 hours, primer probe set RTS3454, relative to untreated control cells; Table 12

Row | Substance | % inhibition [%]
15 | 546432 (eG*eA*e[5mC]*e[5mC]*e[5mC]*d[5mC]*dA*dA*d[5mC]*dA*dG*dA*d[5mC]*dA*dG*e[5mC]*e[5mC]*e[5mC]*eA*e[5mC]; antisense) [compound 546432] | 62
16 | 546422 (eA*e[5mC]*eG*eG*eT*d[5mC]*dT*dT*d[5mC]*dA*dA*dG*d[5mC]*dT*dG*eT*eT*e[5mC]*eT*eA; antisense) [compound 546422] | 72

Same assay, conditions: Table 7; HepaRG cells, electroporation with 5,000 nM antisense oligonucleotide, approx. 24 hours; PKK mRNA by RT-PCR (RTS3454), relative to untreated control cells

Row | Substance | % inhibition [%]
17 | 546235 (eG*eG*e[5mC]*eT*eA*dT*dA*dT*d[5mC]*d[5mC]*dA*dG*dA*dT*dA*eT*eG*eG*eT*eG; antisense) [compound 546235] | 77

Same assay, conditions: Table 8; HepaRG cells, electroporation with 5,000 nM antisense oligonucleotide, approx. 24 hours; PKK mRNA by RT-PCR (RTS3454), relative to untreated control cells

Row | Substance | % inhibition [%]
18 | 547442 (antisense eT*eG*eG*eT*eG*dT*d[5mC]*d[5mC]*dT*dA*dT*dG*dA*dG*dT*eG*eA*e[5mC]*e[5mC]*e[5mC]) [compound 547442] | 42
19 | 547411 (e[5mC]*eA*eT*e[5mC]*eT*dT*dT*dG*dT*dG*d[5mC]*dA*dA*dG*dT*e[5mC]*eT*e[5mC]*eT*eT; antisense) [compound 547411] | 79
20 | 547422 (eA*e[5mC]*e[5mC]*eA*eT*d[5mC]*d[5mC]*dA*dT*dA*dG*dA*dT*dA*dA*eT*e[5mC]*eT*eT*eA; antisense) [compound 547422] | 70
21 | 547414 (eT*eG*eG*eG*eA*dG*dT*dA*dA*dA*dG*dA*dA*dT*dA*eA*eG*eT*eG*eA; antisense) [compound 547414] | 76
22 | 546300 (antisense eT*eA*eA*eT*eG*dT*d[5mC]*dT*dG*dA*d[5mC]*dA*dG*dA*dT*eT*eT*eA*eA*eA) [compound 546300] | 58
23 | 546260 (eG*eA*eA*eA*eA*dA*d[5mC]*dT*dG*dA*d[5mC]*dA*dG*d[5mC]*dG*eA*eA*eT*e[5mC]*eA; antisense) [compound 546260] | 84
24 | 547415 (eT*e[5mC]*eT*eG*eG*dG*dA*dG*dT*dA*dA*dA*dG*dA*dA*eT*eA*eA*eG*eT; antisense) [compound 547415] | 71
25 | 546280 (e[5mC]*e[5mC]*eA*eG*eA*dG*d[5mC]*dT*d[5mC]*d[5mC]*d[5mC]*dT*dT*dG*dT*eG*eT*e[5mC]*e[5mC]*e[5mC]; antisense) [compound 546280] | 86

Same assay, conditions: Table 9 experiment; HepaRG cells, 20,000 cells per well, electroporation with 5,000 nM antisense oligonucleotide, approx. 24 hours; PKK mRNA by RT-PCR (RTS3454), relative to untreated control cells

Row | Substance | % inhibition [%]
26 | 546321 (antisense eG*eA*eA*eG*eG*dT*dA*dG*dG*d[5mC]*dA*dT*dA*dT*dT*eG*eG*eT*eT*eT) [compound 546321] | 53
27 | 547475 (antisense eT*eT*eT*eG*eT*dT*dA*d[5mC]*d[5mC]*dA*dA*dA*dG*dG*dA*eA*eT*eA*eT*eT) [compound 547475] | 44
28 | 546323 (antisense eG*eT*eG*e[5mC]*eT*dT*dG*dT*dG*dT*d[5mC]*dA*d[5mC]*d[5mC]*dT*eT*eT*eG*eG*eA) [compound 546323] | 94
29 | 547476 (antisense e[5mC]*eA*eT*eT*eT*dG*dT*dT*dA*d[5mC]*d[5mC]*dA*dA*dA*dG*eG*eA*eA*eT*eA) [compound 547476] | 75

Same assay, conditions: Table 10 experiment; HepaRG cells, 20,000 cells per well, electroporation with 5,000 nM antisense oligonucleotide, approx. 24 hours; PKK mRNA by RT-PCR (RTS3454), relative to untreated control cells

Row | Substance | % inhibition [%]
30 | 546321 (antisense eG*eA*eA*eG*eG*dT*dA*dG*dG*d[5mC]*dA*dT*dA*dT*dT*eG*eG*eT*eT*eT) [compound 546321] | 56
31 | 547475 (antisense eT*eT*eT*eG*eT*dT*dA*d[5mC]*d[5mC]*dA*dA*dA*dG*dG*dA*eA*eT*eA*eT*eT) [compound 547475] | 42
32 | 546323 (antisense eG*eT*eG*e[5mC]*eT*dT*dG*dT*dG*dT*d[5mC]*dA*d[5mC]*d[5mC]*dT*eT*eT*eG*eG*eA) [compound 546323] | 80
33 | 547476 (antisense e[5mC]*eA*eT*eT*eT*dG*dT*dT*dA*d[5mC]*d[5mC]*dA*dA*dA*dG*eG*eA*eA*eT*eA) [compound 547476] | 71

Same assay, conditions: Table 13; human PKK mRNA in HepaRG cells; 5-10-5 gapmers

Row | Substance | % inhibition [%]
34 | 547558 (e[5mC]*e[5mC]*e[5mC]*e[5mC]*e[5mC]*dA*dG*dT*dT*d[5mC]*d[5mC]*d[5mC]*dA*dT*dG*e[5mC]*eA*eA*eG*eG; antisense) [compound 547558] | 52
35 | 546796 (eG*eT*eA*e[5mC]*eT*d[5mC]*dA*d[5mC]*d[5mC]*dG*dG*dT*dA*d[5mC]*dT*e[5mC]*eT*eG*e[5mC]*e[5mC]; antisense) [compound 546796] | 82
36 | 547573 (eT*eA*eA*eG*e[5mC]*dA*dA*dG*dG*d[5mC]*d[5mC]*dT*dA*dT*dG*eT*eG*eT*eG*eG; antisense) [compound 547573] | 2
37 | 546747 (e[5mC]*eT*e[5mC]*e[5mC]*e[5mC]*dA*d[5mC]*dT*dG*dA*d[5mC]*dT*dG*dA*d[5mC]*eT*eA*e[5mC]*eT*e[5mC]; antisense) [compound 546747] | 64
38 | 547582 (eT*eA*eT*eA*eT*d[5mC]*dA*d[5mC]*dT*dG*dT*d[5mC]*d[5mC]*dT*dA*eT*eA*eA*e[5mC]*eT; antisense) [compound 547582] | 22

Same assay, conditions: human PKK mRNA in HepaRG cells; 5-10-5 gapmers; Table 14

Row | Substance | % inhibition [%]
39 | 547611 (antisense e[5mC]*eT*eG*eT*eA*dA*d[5mC]*dA*dG*dT*dA*dT*d[5mC]*dA*d[5mC]*eT*eG*eT*eA*e[5mC]) [compound 547611] | 71
40 | 547614 (antisense e[5mC]*e[5mC]*eT*eA*eT*dA*dT*d[5mC]*dA*d[5mC]*dT*dG*dT*dA*d[5mC]*e[5mC]*eT*eG*eT*eA) [compound 547614] | 81
41 | 547600 (antisense eT*eT*eT*e[5mC]*e[5mC]*dT*dA*dT*dA*dA*d[5mC]*dT*dA*dT*dA*eA*e[5mC]*eA*eA*eT) [compound 547600] | 26
42 | 547613 (antisense e[5mC]*eT*eA*eT*eA*dT*d[5mC]*dA*d[5mC]*dT*dG*dT*dA*d[5mC]*d[5mC]*eT*eG*eT*eA*eA) [compound 547613] | 39
43 | 547620 (antisense eT*eT*e[5mC]*e[5mC]*eT*dA*dT*dA*dA*d[5mC]*dA*dG*dT*dA*dT*e[5mC]*eA*e[5mC]*eT*eG) [compound 547620] | 65

Same assay, conditions: human PKK mRNA, HepaRG cells; 5-10-5 motif oligonucleotides targeting SEQ ID NO: 1 and 10

Row | Substance | % inhibition [%]
44 | 547634 (antisense eA*eT*e[5mC]*eA*e[5mC]*dT*dG*dT*dA*d[5mC]*dT*dA*dG*dT*dT*eT*eT*e[5mC]*eT*eA) [compound 547634] | 72
45 | 547676 (antisense e[5mC]*eT*eG*eT*e[5mC]*d[5mC]*dT*dA*dT*dA*dA*d[5mC]*dT*dA*dT*eA*eA*e[5mC]*eA*eA) [compound 547676] | 41
46 | 547626 (antisense eA*e[5mC]*eA*eG*eT*dA*dT*d[5mC]*dA*d[5mC]*dT*dG*dT*d[5mC]*d[5mC]*eT*eA*eT*eG*eT) [compound 547626] | 91
